Test results as given in ChEMBL document CHEMBL1128020, “Synthesis and sar of 2h-1,2,4-benzothiadiazine-1,1-dioxide-3-carboxylic acid derivatives as novel potent glycine antagonists of the nmda receptor-channel complex” (Bioorg Med Chem Lett, 1994).

target: Glutamate receptor 4 (Homo sapiens, UniProt P48058); assay: Binding affinity against AMPA receptor using [3H]AMPA as the radioligand.
Sequence (P48058 whole entry): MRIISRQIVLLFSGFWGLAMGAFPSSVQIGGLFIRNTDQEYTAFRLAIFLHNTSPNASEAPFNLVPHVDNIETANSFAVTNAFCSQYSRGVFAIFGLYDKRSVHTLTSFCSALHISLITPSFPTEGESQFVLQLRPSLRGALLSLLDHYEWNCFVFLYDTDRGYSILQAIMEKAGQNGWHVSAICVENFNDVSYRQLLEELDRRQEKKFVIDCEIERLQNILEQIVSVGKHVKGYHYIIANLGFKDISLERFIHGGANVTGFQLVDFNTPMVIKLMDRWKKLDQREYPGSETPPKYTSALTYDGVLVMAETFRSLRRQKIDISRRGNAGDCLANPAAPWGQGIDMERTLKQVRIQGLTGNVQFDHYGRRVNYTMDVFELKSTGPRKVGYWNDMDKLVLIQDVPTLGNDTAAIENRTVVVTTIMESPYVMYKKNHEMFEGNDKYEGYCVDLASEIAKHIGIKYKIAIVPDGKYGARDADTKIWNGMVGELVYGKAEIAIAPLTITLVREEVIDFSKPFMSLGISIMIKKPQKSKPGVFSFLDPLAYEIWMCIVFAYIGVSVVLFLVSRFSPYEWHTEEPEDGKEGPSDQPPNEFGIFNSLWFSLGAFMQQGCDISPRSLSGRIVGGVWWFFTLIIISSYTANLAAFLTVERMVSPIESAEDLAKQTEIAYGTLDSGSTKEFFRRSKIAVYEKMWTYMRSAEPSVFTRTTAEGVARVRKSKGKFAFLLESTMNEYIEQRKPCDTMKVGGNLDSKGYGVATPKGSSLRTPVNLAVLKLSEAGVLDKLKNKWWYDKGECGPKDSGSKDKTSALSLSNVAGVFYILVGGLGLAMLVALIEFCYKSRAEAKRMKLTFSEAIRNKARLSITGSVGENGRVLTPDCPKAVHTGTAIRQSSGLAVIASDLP

| IC50 | Structure (SMILES) |
| --- | --- |
| 38000 nM | O=C(O)C1Nc2cc(Cl)cc(Cl)c2S(=O)(=O)N1Cc1cccc(Br)c1 (stereo not given) |

target: Glutamate NMDA receptor; assay: Binding affinity at the glycine binding site of the N-methyl-D-aspartate glutamate receptor in rat cortical membranes using [3H]dichlorokynurenate ([3H]DCKA) as radioligand; type: cell membranes, Membrane

| Structure (SMILES) | IC50 |
| --- | --- |
| O=C(O)C1Nc2cc(Cl)cc(Cl)c2S(=O)(=O)N1Cc1ccccc1 (stereo not given) | 48 nM |
| O=C(O)C1Nc2cc(Cl)cc(Cl)c2S(=O)(=O)N1CCCc1ccccc1 (stereo not given) | 33 nM |
| O=C(O)C1Nc2cc(Cl)cc(Cl)c2S(=O)(=O)N1CCCCCc1ccccc1 (stereo not given) | 36 nM |
| O=C(O)C1Nc2cc(Cl)cc(Cl)c2S(=O)(=O)N1Cc1ccccc1C(F)(F)F (stereo not given) | 100 nM |
| O=C(O)C1Nc2cc(Cl)cc(Cl)c2S(=O)(=O)N1Cc1cccc(OC(F)(F)F)c1 (stereo not given) | 20 nM |
| CCOC(=O)C1Nc2cc(Cl)cc(Cl)c2S(=O)(=O)N1Cc1cccc(-c2ccccc2)c1 (stereo not given) | 20 nM |
| O=C(O)C1Nc2cc(Cl)cc(Cl)c2S(=O)(=O)N1CCc1ccccc1 (stereo not given) | 90 nM |
| O=C(O)C1Nc2cc(Cl)cc(Cl)c2S(=O)(=O)N1Cc1cccc(Br)c1 (single isomer, unassigned; (-)) | 4 nM |
| O=C(O)C1Nc2cc(Cl)cc(Cl)c2S(=O)(=O)N1Cc1cccc(Br)c1 (stereo in doubt; (+)8k) | 1880 nM |
| CCOC(=O)C1Nc2cc(Cl)cc(Cl)c2S(=O)(=O)N1C (stereo not given) | 400 nM |
| O=C(O)C1Nc2cc(Cl)cc(Cl)c2S(=O)(=O)N1c1ccccc1 (stereo not given) | 2600 nM |
| CCOC(=O)C1Nc2cc(Cl)cc(Cl)c2S(=O)(=O)N1CCOc1ccccc1 (stereo not given) | 41 nM |
| CCOC(=O)C1Nc2cc(Cl)cc(Cl)c2S(=O)(=O)N1CC(=O)c1ccccc1 (stereo not given) | 22 nM |
| COc1ccccc1CN1C(C(=O)O)Nc2cc(Cl)cc(Cl)c2S1(=O)=O (stereo not given) | 21 nM |
| O=C(O)C1Nc2cc(Cl)cc(Cl)c2S(=O)(=O)N1CCS(=O)(=O)c1ccccc1 (stereo not given) | 70 nM |
| O=C(Nc1ccccc1)N[C@H]1C[C@H](C(=O)O)Nc2cc(Cl)cc(Cl)c21 (single isomer, unassigned) | 26 nM |
| O=C(O)C1Nc2cc(Cl)cc(Cl)c2S(=O)(=O)N1Cc1ccc(C(F)(F)F)cc1 (stereo not given) | 92 nM |
| O=C(O)C1Nc2cc(Cl)cc(Cl)c2S(=O)(=O)N1Cc1cccc(F)c1 (stereo not given) | 13 nM |
| O=C(O)CCc1c(C(=O)O)[nH]c2cc(Cl)cc(Cl)c12 | 50 nM |
| O=C(O)c1cc(O)c2c(Cl)cc(Cl)cc2n1 | 46 nM |
| O=C(O)C1Nc2cc(Cl)cc(Cl)c2S(=O)(=O)N1Cc1cccc(I)c1 (stereo not given) | 8 nM |
| O=C(O)C1Nc2cc(Cl)cc(Cl)c2S(=O)(=O)N1CCCCc1ccccc1 (stereo not given) | 77 nM |
| CCOC(=O)C1Nc2cc(Cl)cc(Cl)c2S(=O)(=O)N1CCSc1ccccc1 (stereo not given) | 38 nM |
| O=C(O)CN1C(C(=O)O)Nc2cc(Cl)cc(Cl)c2S1(=O)=O (stereo not given) | 9500 nM |

More lines, now with the values ahead:

| IC50 | Structure (SMILES) |
| --- | --- |
| 80 nM | CCOC(=O)C1Nc2cc(Cl)cc(Cl)c2S(=O)(=O)N1Cc1ccccc1C (stereo not given) |
| 40 nM | CCOC(=O)C1Nc2cc(Cl)cc(Cl)c2S(=O)(=O)N1Cc1ccc(OC)cc1 (stereo not given) |
| 9 nM | CCOC(=O)C1Nc2cc(Cl)cc(Cl)c2S(=O)(=O)N1Cc1cccc(Oc2ccccc2)c1 (stereo not given) |
| 12 nM | CCOC(=O)C1Nc2cc(Cl)cc(Cl)c2S(=O)(=O)N1Cc1cccc([N+](=O)[O-])c1 (stereo not given) |
| 20 nM | CCOC(=O)C1Nc2cc(Cl)cc(Cl)c2S(=O)(=O)N1Cc1ccc(Cl)cc1 (stereo not given) |
| 26 nM | CCOC(=O)C1Nc2cc(Cl)cc(Cl)c2S(=O)(=O)N1Cc1ccccc1F (stereo not given) |
| 11 nM | CCOC(=O)C1Nc2cc(Cl)cc(Cl)c2S(=O)(=O)N1Cc1cccc(Cl)c1 (stereo not given) |
| 45 nM | CCOC(=O)C1Nc2cc(Cl)cc(Cl)c2S(=O)(=O)N1Cc1ccc(C)cc1 (stereo not given) |
| 29 nM | CCOC(=O)C1Nc2cc(Cl)cc(Cl)c2S(=O)(=O)N1Cc1cccc(N)c1 (stereo not given) |
| 48 nM | CCOC(=O)C1Nc2cc(Cl)cc(Cl)c2S(=O)(=O)N1Cc1ccccc1Cl (stereo not given) |
| 44 nM | CCOC(=O)C1Nc2cc(Cl)cc(Cl)c2S(=O)(=O)N1Cc1ccc(F)cc1 (stereo not given) |
| 12 nM | CCOC(=O)C1Nc2cc(Cl)cc(Cl)c2S(=O)(=O)N1Cc1cccc(OC)c1 (stereo not given) |
| 17 nM | CCOC(=O)C1Nc2cc(Cl)cc(Cl)c2S(=O)(=O)N1Cc1cccc(C#N)c1 (stereo not given) |
| 14 nM | CCOC(=O)C1Nc2cc(Cl)cc(Cl)c2S(=O)(=O)N1Cc1cccc(C)c1 (stereo not given) |
| 18 nM | CCOC(=O)C1Nc2cc(Cl)cc(Cl)c2S(=O)(=O)N1Cc1cccc(C(F)(F)F)c1 (stereo not given) |
